Data taken from PubChem BioAssay (NCI).
Several values for one entry are separate records, joined by “and”; a condition that tells them apart may be missing. Equal entries are not always repeated.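 Assay format: 96-well plates, 48-hour exposure. Abbreviation: GI50, concentration required for 50% inhibition of growth. The concentration for full growth arrest is given as TGI.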 Where a SMILES comes first, the peptide text is derived from it. [ ]: non-standard residue; d: D form. The star is where a group is joined. X13 = OC[C@H](CC1CCCCC1)N*; dIva = CC[C@@](C)(N)C(=O)O; Aib = CC(C)(N)C(=O)O

What follows are molecules tested on MDA-MB-468 breast (assay: inhibition of tumour cell growth, NCI panel, 48 h).

Row | SMILES | GI50 | TGI
1 | O=C1NC(O)C(c2c[nH]c3ccccc23)=C1c1c[nH]c2ccccc12 (stereo not given) | > 25000 nM | > 25000 nM
2 | COc1ccc(/C=C\c2cc(OC)c(OC)c(OC)c2)cc1OC(=O)c1cccc(Cn2cc(CCOC(=O)[C@H](N)Cc3cn(C)c4ccccc34)nn2)c1 | < 10 nM | 3570 nM
3 | Cn1c(/C=C(\C#N)c2ccccc2)nc2c(N3CCOCC3)nc(Cl)nc21 | 688 nM | 2190 nM
4 | CC[C@H](Nc1nc(NCc2cnc(C)cc2C)c2ncn(C(C)C)c2n1)[C@@H](C)O | 192 nM | 470 nM
5 | O=[N+]([O-])c1ccc(-c2nnc(SCc3ccc(O)c4ncccc34)o2)cc1 | 396 nM | > 100000 nM
6 | Nc1c(Br)cc(Br)c2c1[nH]c(=O)c1ccccc12 | 550 nM | 8900 nM
7 | CC1=C2C[C@H]3[C@@H](CC[C@@H]4CC(NS(C)(=O)=O)CC[C@@]43C)[C@@H]2CC[C@@]2(C1)O[C@@H]1C[C@H](C)CN[C@H]1[C@H]2C (stereo not given in full) | 2000 nM | 5620 nM
8 | C#CCC(Cc1cnc2nc(N)nc(N)c2n1)c1ccc(C(=O)N[C@@H](CCC(=O)O)C(=O)O)cc1 (stereo not given in full) | < 10 nM | > 20400 nM
9 | CC1(C)N=C(N)N=C(N)N1c1ccc(OCCCCOc2ccc(S(=O)(=O)F)cc2)c(Cl)c1 | 188 nM | 8800 nM
10 | CCOC(=O)N1CCc2cc(OC)c(OC)c3c2c1cc1cc(OC)c(OC)cc13 | 3170 nM | > 100000 nM
11 | NC(N)=N/N=C\c1cccc(OCc2ccccc2)c1 | 1340 nM | 2730 nM
12 | O=C1c2cc3c(cc2-c2c1c1ccc(Cl)cc1c(=O)n2CCCNCCO)OCO3 | 85 nM | 2350 nM
13 | CCOc1ccc(-c2nonc2NC(=O)c2cccc(C)c2)cc1OCC | 17600 nM | 48800 nM
14 | C/C(=N/Nc1nc2ccccc2n1C)c1ccccn1 | 31.9 nM | 239 nM
15 | Fc1ccc2c(c1)c(-c1nc(-c3c[nH]c4ncccc34)cs1)cn2CCCN1CCCCC1 | 1610 nM | 3230 nM
16 | CCc1c(C#N)c(S[C@@H](C(N)=O)c2ccccc2)nc(N(C)C)c1C#N | 6140 nM | > 100000 nM
17 | CC(C)[C@H](CO)Nc1nc(Nc2ccc(C(=O)NCCNS(=O)(=O)c3cccc4c(N(C)C)cccc34)c(Cl)c2)c2ncn(C(C)C)c2n1 | 1690 nM | 6750 nM
18 | COc1ccc(-c2nnc(SCc3ccc(O)c4ncccc34)n2-c2ccccc2)cc1 | 810 nM | 6570 nM
19 | Ic1ccccc1-c1ccccc1 | 85000 nM | > 100000 nM
20 | O=C(/C=C/c1cccnc1)NCCCCC1CCCN(C(=O)c2ccccc2)C1 (stereo not given) | 13600 nM | > 100000 nM
21 | CC(C)(O)CS(=O)(=O)Nc1ccc2c(c1)CCN(C(=O)COc1cccnc1)C2 | > 100000 nM | > 100000 nM
22 | Cc1ccccc1N=Nc1ccc(NC(=O)c2ccnn2C)c(C)c1 | 3840 nM | 70600 nM
23 | CCn1c(CN2CCN(Cc3ccccc3)CC2)nc2cc(NC(=O)c3cccs3)ccc21 | 6160 nM | 47100 nM

Row | SMILES | GI50 | TGI
24 | C=C(C)[C@@H]1CC[C@]2(COC)CC[C@]3(C)[C@H](CC[C@@H]4[C@@]5(C)CCCNC(C)(C)[C@@H]5CC[C@]43C)[C@@H]12 | 1570 nM | 3180 nM
25 | COc1cc(NC2=C(Cl)C(=O)c3nc(C)ccc3C2=O)cc(OC)c1 | 1230 nM | 2570 nM
26 | COC(=O)C1=C(C(=O)ON)C2C=CC1(C(Cc1ccccc1)Nc1ccccc1)O2 (stereo not given) | 1420 nM | 2800 nM
27 | C/C(=N\Nc1cc(C)c2cc(C)ccc2n1)c1ccccn1 | 65.4 nM | 318 nM
28 | COc1ncc(-c2ccc3nccc(-c4ccnnc4)c3c2)cc1NS(=O)(=O)c1ccc(F)cc1F | 2.7 nM and < 10 nM | 26.6 nM and 15.8 nM
29 | O=C1C(=O)c2ccccc2C(O)=C1CC=C(Br)Br | 11400 nM | 41800 nM
30 | COc1ccccc1CCN=C1NC(=O)/C(=C/c2ccc3ncccc3c2)S1 | 4590 nM | 16400 nM
31 | C=CC(=O)N1CCN(c2nc(=O)n(-c3c(C)ccnc3C(C)C)c3nc(-c4c(O)cccc4F)c(F)cc23)[C@@H](C)C1 | 22000 nM | > 81100 nM
32 | COc1cc(-c2nn(-c3cccc(NC(=O)Nc4cc(C(F)(F)F)cc(C(F)(F)F)c4)c3)cc2-c2ccncc2)ccc1Cl | 236 nM | 2310 nM
33 | CC[C@@](C)(NC(=O)C(C)(C)NC(=O)[C@@H](NC(=O)[C@@H]1CCCN1C(=O)C(C)(C)NC(=O)[C@H](CC(C)C)NC(=O)CNC(=O)C(C)(C)NC(=O)[C@@H](NC(=O)C(C)(C)NC(=O)[C@H](CCC(N)=O)NC(=O)[C@H](C)NC(=O)C(C)(C)NC(=O)[C@H](C)NC(=O)C(C)(C)NC(=O)[C@H](C)NC(=O)C(C)(C)NC(C)=O)C(C)C)C(C)C)C(=O)N[C@@H](CCC(N)=O)C(=O)N[C@@H](CCC(N)=O)C(=O)N[C@H](CO)CC1CCCCC1 (Ac-[Aib]A[Aib]A[Aib]AQ[Aib]V[Aib]GL[Aib]PV[Aib][dIva]QQ-X13) | 747 nM | 4080 nM
34 | CCCc1cc2c(=O)c(C(=O)OC)c[nH]c2cc1N(CC)CC | 24400 nM | > 100000 nM
35 | C=C1C(=O)O[C@H]2[C@H]1CC/C(Cn1cc(-c3cc(C(F)(F)F)cc(C(F)(F)F)c3)nn1)=C\CC[C@@]1(C)O[C@@H]21 | 424 nM | 1750 nM
36 | COc1cc(C)c(Cl)cc1C1=NN(c2ccc(S(N)(=O)=O)cc2)C(/C=C/c2ccccc2)C1 (stereo not given) | 2140 nM | 5790 nM
37 | COC1CC2CCC(C)C(O)(O2)C(=O)C(=O)N2CCCCC2C(=O)OC(C(C)CC2CCC(O)C(OC)C2)CC(=O)C(C)C=C(C)C(O)C(OC)C(=O)C(C)CC(C)/C=C/C=C/C=C1C (stereo not given) | < 5 nM | 7350 nM
38 | COC(=O)c1c2c(c(C)[n+]([O-])c1C)C(=O)C=C(NCc1ccc(F)c(Cl)c1)C2=O | 200 nM | 712 nM
39 | O=C(CNc1ccc2c(c1)C(=O)c1ccccc1C2=O)Nc1ccc2c(c1)C(=O)c1ccccc1C2=O | 896 nM | 2480 nM
40 | CCC/C(=N/N=C(N)N)c1ccc(NC(=O)c2cc3cc(OC)ccc3[nH]2)cc1 | 2340 nM | 12100 nM
41 | Cc1c(-c2c(-c3ccc(F)o3)sc3ncnc(O[C@H](Cc4ccccc4OCc4ccnn4CC(F)(F)F)C(=O)O)c23)ccc(OCCN2CCN(C)CC2)c1Cl | 25.3 nM | 105 nM
42 | O=c1c2ccccc2n(C[C@H]2CO2)c2ccccc12 | 1830 nM | 3810 nM
43 | Cc1cc2nc3c4cc(N)ccc4n(CCN(C)C)c3nc2cc1C | 1040 nM | 2790 nM
44 | CC(C)(C)c1nn(-c2ccccc2)c2c1C(=O)CSC(c1ccccc1Cl)N2 (stereo not given) | 1010 nM | 12100 nM
45 | O=C1/C(=C/c2ccccc2)CN(C(=O)c2cccnc2)C/C1=C\c1ccccc1 | 1820 nM | 4240 nM
